This is an account of results in patent publication US10654824B2, “2-azabicyclo[3.1.0]hexan-3-one derivatives and methods of use” (Genentech, Inc., priority 2016, dated 2020).

Structures are written as SMILES. Entries after “also recorded” stand apart in the source; their conditions may differ.

The target of one data set is T1, NIK (Homo sapiens, UniProt Q99558).
T1 construct: made in house; host or cells: baculovirus-infected insect cells
Put plainly: NIK enzyme inhibition assay (Transcreener ADP, fluorescence polarization). As to conditions: for NIK enzyme inhibition, rank among the 4 stereoisomers: in words, four separated stereoisomers of Example 1. It is filed as biochemical. Here is the method: The ability of the nuclear factor-kappa B (NF-kB)-inducing kinase (NIK) to catalyze the hydrolysis of adenosine-5′-triphosphate (ATP) was monitored using the Transcreener ADP (adenosine-5′-diphosphate) assay (BellBrook Labs). Purified NIK (0.5 nM) derived from a baculovirus-infected insect cell expression system was incubated with test compounds for 1-3.5 hours in 50 mM 2-[4-(2-hydroxyethyDpiperazin-1-yl]ethanesulfonic acid buffer (pH 7.2) containing 10 mM MgCl2, 2 mM dithiothreitol, 10 μM ATP, 0.01% Triton X-100, 0.1% gamma-globulins from bovine blood, 1% dimethylsulfoxide (DMSO), 7 μg/mL ADP antibody and 5 nM ADP-MR121 633 tracer. Reactions were quenched by the addition of 20 mM 2,2′,2″, 2″′-(ethane-1,2-diyldinitrilo)tetraacetic acid and 0.01% Brij 35. The tracer bound to the antibody was displaced by the ADP generated during the NIK reaction, which causes a decrease in fluorescence polarization that was measured by laser excitation at 633 nm with a Fluorescence Correlation Spectroscopy Plus reader (Evotec AG). Equilibrium dissociation constant (Ki) values for NIK inhibitors are calculated from plots of activity vs. inhibitor concentration using Morrison's quadratic equation that accounts for the potential of tight binding, and by also applying the conversion factor that accounted for competitive inhibition and the concentration of substrate used in the assay relative to its Michaelis constant (Km).
On the technique in general: Fluorescence polarisation rises when a labelled molecule tumbles more slowly, as on binding a larger partner.

The test system of data set [1] is REL-A (p65) nuclear translocation, classical NF-kB signaling, HUVEC. Briefly: REL-A HUVEC nuclear translocation assay. It is filed as cell-based. The conditions noted are these: Homo sapiens, TNF-α 2 ng/mL stimulation. Here is the method: (§1) (2) A second set of cell assays used primary human umbilical vein cells (HUVEC) sourced from Lonza to define the selectivity of NIK inhibitors toward inhibition of classical vs. non-classical NF-kB signaling using high content cellular imaging. For the p52 (non-classical NF-kB signaling) nuclear translocation assay, HUVEC were treated with different concentrations of compounds (0.2% DMSO final) in EBM-2 medium (LONZA) containing 2% fetal bovine serum and then stimulated with 300 ng/mL of an anti-lymphotoxin beta receptor antibody (R&D Systems) for 4.5 hours. In the REL-A nuclear translocation assay, HUVEC were incubated with compounds (0.2% DMSO final) for 4 hours 50 minutes in EBM-2 medium containing 2% fetal bovine serum before stimulating them with 2 ng/mL tumor necrosis factor (TNF)-α (R&D Systems) for 10 minutes. Cells were fixed with 4% paraformaldehyde, permeabilized by adding 0.1% Triton X-100 in phosphate buffered saline, and then were incubated with either 2 μg/mL anti-p52 antibody (Millipore) or 400 ng/mL anti-REL-A (p65) antibody (Santa Cruz Biotechnology). […] Imaging was carried out using an Opera reader (Perkin Elmer) and data were analyzed with the aid of Acapella software (Perkin Elmer). The p52 or REL-A translocation into the nucleus was quantified by the ratio of the nuclear to cytoplasmic signal intensity.

The subject of data set [2] is p52 nuclear translocation, non-classical NF-kB signaling, HUVEC. Put plainly: p52 HUVEC nuclear translocation assay. It is filed as cell-based. As to conditions: Homo sapiens, anti-lymphotoxin beta receptor antibody 300 ng/mL. On the procedure: as §1
A short description of data set [3]: Liver microsome stability. Format: in vitro ADME, human. Here is the method:
General. Metabolic stability assays in liver microsomes are conducted with pooled female CD-1 mouse, male Sprague-Dawley rat, male beagle dog, male cynomolgus monkey, and mixed male and female human liver microsomal incubations. The general assay conditions are as follows. Incubation mixtures consisted of liver microsomes (0.5 mg of microsomal protein/ml) and the test compound (1.0 μM) with or without NADPH (1.0 mM) in the potassium phosphate buffer (100 mM; pH 7.4) with a final incubation volume of 0.25 ml. Reactions are initiated by the addition of NADPH or buffer and shaken in a water bath open to the air at 37° C. At times 0, 20, 40, and 60 min, aliquots (50 μl) are removed and added to termination mixtures (100 μl) containing acetonitrile and an internal standard. The samples are then centrifuged for 10 min at 2000 g. The supernatant (90 μl) is removed, combined with 180 μl of water, and analyzed by LC-MS/MS.
Metabolic stability of the test compounds were evaluated in human liver microsomes following known protocols described in Halladay, et al. Drug Metabol. Lett. 2007, 1:67-72.
For orientation: Liver microsomes are a subcellular fraction often used to study metabolism.

The next data set in a line: Hepatocyte stability. It is filed as in vitro ADME, human. On the procedure: General. Metabolic stability assays in hepatocytes are conducted using cryopreserved pooled female CD-1 mouse, male Sprague-Dawley rat, male beagle dog, male cynomolgus monkey, and mixed male and female human hepatocytes (CellzDirect). Vials of hepatocytes are thawed rapidly in a water bath set at 37° C. and then are diluted with Dulbecco's modified Eagle's medium (DMEM), pH 7.4. Cells are isolated by centrifugation, pooled, and resuspended in DMEM at 1.0 million viable cells/ml. Membrane integrity of the cells is assessed by trypan blue exclusion. The test compound is dissolved in dimethyl sulfoxide at a final concentration of […]. This test compound stock is diluted further to 2 μM in DMEM (125 μl) before the addition of an equal volume of the 10^6 cells/ml cell suspension. The test compound (final incubation concentration of 1.0 μM with 0.1% dimethyl sulfoxide) and cells (final concentration of 0.5×10^6 cells/ml) are incubated at 37° C. in a 95% air/5% CO2 atmosphere for 3 h. Aliquots (50 μl) are removed at 0, 1, 2, and 3 hours and added to termination mixtures (100 μl) containing acetonitrile and an internal standard. […] The supernatant (90 μl) is removed, combined with 180 μof water, and analyzed by LC-MS/MS.
Metabolic stability of the test compounds were evaluated also in human hepatocytes, following protocols described in Hallifax, et al. Drug Metabol. […]

T1 sequence (Q99558 whole entry): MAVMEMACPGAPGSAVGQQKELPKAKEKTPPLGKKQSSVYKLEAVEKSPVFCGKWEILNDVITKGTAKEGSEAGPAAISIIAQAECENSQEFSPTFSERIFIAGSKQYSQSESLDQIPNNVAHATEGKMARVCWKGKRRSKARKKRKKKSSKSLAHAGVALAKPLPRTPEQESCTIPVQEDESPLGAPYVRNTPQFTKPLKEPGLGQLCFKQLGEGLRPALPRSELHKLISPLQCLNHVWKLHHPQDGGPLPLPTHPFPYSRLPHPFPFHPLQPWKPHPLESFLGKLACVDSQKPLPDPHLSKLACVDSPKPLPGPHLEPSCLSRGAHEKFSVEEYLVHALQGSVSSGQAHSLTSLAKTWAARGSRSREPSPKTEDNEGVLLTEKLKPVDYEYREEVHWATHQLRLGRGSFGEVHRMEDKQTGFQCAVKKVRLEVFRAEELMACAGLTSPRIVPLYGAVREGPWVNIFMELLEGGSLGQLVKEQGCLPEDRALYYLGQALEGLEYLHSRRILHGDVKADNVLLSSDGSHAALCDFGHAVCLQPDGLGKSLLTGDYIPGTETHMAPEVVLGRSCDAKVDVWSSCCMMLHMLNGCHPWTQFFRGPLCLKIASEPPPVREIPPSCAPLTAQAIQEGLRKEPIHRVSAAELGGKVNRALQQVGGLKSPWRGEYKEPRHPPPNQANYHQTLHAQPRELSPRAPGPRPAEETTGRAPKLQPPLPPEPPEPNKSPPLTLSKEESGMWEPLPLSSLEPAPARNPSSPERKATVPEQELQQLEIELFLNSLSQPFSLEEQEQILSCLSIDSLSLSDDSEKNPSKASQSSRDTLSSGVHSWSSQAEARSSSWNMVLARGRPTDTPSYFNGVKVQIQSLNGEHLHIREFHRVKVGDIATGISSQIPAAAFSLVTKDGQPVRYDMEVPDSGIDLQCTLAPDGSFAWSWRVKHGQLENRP

As for `CN1C(=O)[C@@](O)(C#Cc2cccc(-c3cccc(C(N)=O)n3)c2)[C@H]2C[C@H]21` (single isomer, unassigned), the “NIK enzyme inhibition, rank among the 4 stereoisomers” value at NIK is listed as “third most potent NIK enzyme inhibitor among the 4 stereoisomers”.
The same measure, in the same setting: next, `CN1C(=O)[C@](O)(C#Cc2cccc(-c3cccc(C(N)=O)n3)c2)[C@@H]2C[C@@H]21` (single isomer, unassigned): “second most potent NIK enzyme inhibitor among the 4 stereoisomers”; `CN1C(=O)[C@@](O)(C#Cc2cccc(-c3cccc(C(N)=O)n3)c2)[C@@H]2C[C@@H]21` (single isomer, unassigned): “no measurable inhibition”.
One may read the Ki as the equilibrium dissociation constant of an inhibitor or competing ligand from its target. A word on the IC50: it is the concentration needed to halve the response being measured. A lower IC50 goes with greater potency in that assay. Consider `CN1C(=O)[C@](O)(C#Cc2cccc(-c3cccc(C(N)=O)n3)c2)[C@H]2C[C@H]21` (single isomer, unassigned) [Compound 1], for which the “NIK enzyme inhibition, rank among the 4 stereoisomers” value on NIK is listed as “most potent NIK enzyme inhibitor among the 4 stereoisomers”. For the same molecule, the inhibitory constant (Ki) at NIK (purified NIK 0.5 nM, 10 μM ATP, read-out: NIK ADP-FP Ki) was found to be 0.4 nM. The results for the concentration for half-maximal inhibition (IC50) in data set [1] and in data set [2] were > 5 µM and 93 nM, respectively. In addition, the “HLM CL (human liver microsome clearance)” value in data set [3] (human liver microsomes) was found to be 1.2 mL/min/kg. The “stability in human liver microsomes compared with the respective pyrrolidinone comparator compound” value in data set [3] (in words, versus comparators C-1, C-3, C-4, C-5, C-6) is recorded as “lower clearance; also recorded: better stability”. The “Hep CL (human hepatocyte clearance)” value in the data set “Hepatocyte stability” (human hepatocytes) is on record as 4.1 mL/min/kg. Besides, the “stability in the human hepatocyte assay compared with the corresponding comparator compound” value in the data set “Hepatocyte stability” (in words, versus comparators C-1, C-3, C-5) is “better stability”.
